Measurements taken from US8952024B2, “Herbicidal pyrimidone derivatives” (E I du Pont de Nemours and Company, priority 2009, dated 2015).

What was measured:
Type in all cases: in vivo
[1] = tested on: galium (catchweed bedstraw, Galium aparine); experiment: Test B pre-/postemergence plant response
How it was run: (§1)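 Visually scored on a 0 to 100 scale after 13 to 15 days in greenhouse versus controls. Treatments were preemergence on seeded loam/sand soil and postemergence on 1- to 4-leaf plants.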

[2] = tested on: nightshade (eastern black nightshade, Solanum ptycanthum); experiment: Test B pre-/postemergence plant response; settings: Preemergence
How it was run: as §1

[3] = tested on: sunflower (common oilseed sunflower, Helianthus annuus); experiment: Test B pre-/postemergence plant response; settings: Preemergence
How it was run: as §1

[4] = tested on: winter barley (Hordeum vulgare); experiment: Test B postemergence plant response; settings: for Barley plant response rating (0 to 100 scale): 0 is no effect
How it was run: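 Plants grown in peat/vermiculite medium were sprayed postemergence at 2–18 cm height (1- to 4-leaf stage). After 13–15 days in the greenhouse, response was rated visually against untreated controls on a 0–100 scale (0 no effect, 100 complete control).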

[5] = tested on: Italian ryegrass (Lolium multiflorum); experiment: Test D pre-/postemergence plant response
How it was run: (§2)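 Seeds were sown in a loam–sand blend and sprayed preemergence with compound in a non-phytotoxic solvent mixture containing surfactant; plants at 2–18 cm (1- to 4-leaf stage) received the same formulation postemergence. After 14 to 21 days in a greenhouse, injury was rated visually against untreated controls (0 = no effect, 100 = complete control).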

[6] = tested on: Russian thistle (Salsola kali); experiment: Test D pre-/postemergence plant response
How it was run: as §2

[7] = tested on: Surinam grass (Brachiaria decumbens); experiment: Test D pre-/postemergence plant response
How it was run: as §2

[8] = tested on: barnyardgrass (Echinochloa crus-galli); experiment: Test D pre-/postemergence plant response
How it was run: as §2

[9] = tested on: black mustard (Brassica nigra); experiment: Test D pre-/postemergence plant response
How it was run: as §2

[10] = tested on: prickly sida (Sida spinosa); experiment: Test D pre-/postemergence plant response
How it was run: as §2

[11] = tested on: deadnettle (henbit deadnettle, Lamium amplexicaule); experiment: Test B pre-/postemergence plant response; settings: Postemergence
How it was run: as §1

[12] = Preemergence, 31 g ai/ha, scale 0 to 100 (0 no effect, 100 complete control)
[13] = Preemergence, 62 g ai/ha, scale 0 to 100 (0 no effect, 100 complete control)
[14] = Preemergence, 125 g ai/ha, scale 0 to 100, 0 no effect, 100 complete control
[15] = 31 g ai/ha, scale 0 to 100 (0 no effect, 100 complete control)
[16] = 62 g ai/ha, scale 0 to 100 (0 no effect, 100 complete control)
[17] = 125 g ai/ha, scale 0 to 100, 0 no effect, 100 complete control
[18] = Postemergence, 250 g ai/ha, scale 0 to 100 (0 no effect, 100 complete control)
[19] = Postemergence, 31 g ai/ha, scale 0 to 100
[20] = Postemergence, 62 g ai/ha, scale 0 to 100 (0 no effect, 100 complete control)
[21] = Postemergence, 125 g ai/ha, scale 0 to 100 (0 no effect, 100 complete control)
[22] = Postemergence, 16 g ai/ha, scale 0 to 100
[23] = Preemergence, 16 g ai/ha, scale 0 to 100, 0 no effect, 100 complete control
[24] = Preemergence, 125 g ai/ha, scale 0 to 100
[25] = Postemergence, 31 g ai/ha, scale 0 to 100 (0 no effect, 100 complete control)
[26] = Preemergence, 62 g ai/ha, scale 0 to 100
[27] = 31 g ai/ha, 0 to 100 scale (0 no effect, 100 complete control)
[28] = 125 g ai/ha, scale 0 to 100 (0 no effect, 100 complete control)
[29] = 250 g ai/ha, scale 0 to 100 (0 no effect, 100 complete control), 13 to 15 days
[30] = Postemergence, 31 g ai/ha, 0 to 100 scale (0 no effect, 100 complete control)
[31] = Postemergence, 250 g ai/ha, scale 0 to 100 (0 no effect, 100 complete control), 13 to 15 days
[32] = 62 g ai/ha, postemergence, 100 is complete control, 13 to 15 days

O=C1CCCC(O)=C1C(=O)c1cnc(-c2ccccc2)n(CC2CCCO2)c1=O (stereo not shown) [Compound 59]
Plant response rating, Galium ([1]; 250 g ai/ha, Preemergence, 0 to 100 scale): 98 | Plant response rating, Galium [1, 12]: 0 | Plant response rating, Galium [1, 13]: 90 | Plant response rating, Galium [1, 14]: 95 | Plant response rating, Nightshade [2, 15]: 95 | Plant response rating, Nightshade [2, 16]: 98 | Plant response rating, Nightshade [2, 17]: 100 | Plant response rating, Sunflower [3, 15]: 55 | Plant response rating, Sunflower [3, 16]: 65 | Plant response rating, Sunflower [3, 17]: 70 | Plant response rating, Barley ([4]; 31 g ai/ha, postemergence, scale 0 to 100, 0 is no effect, 100 is complete control): 0 | Plant response rating, Barley ([4]; Postemergence, 62 g ai/ha, scale 0 (no effect) to 100 (complete control), 13 to 15 days): 0 | Plant response rating, Barley ([4]; Postemergence, 125 g ai/ha, visual rating after 13 to 15 days, scale 0 (no effect) to 100 (complete control)): 10 | Plant response rating, Barley [4, 18]: 10 | Plant response rating, Ryegrass, Italian [5, 19]: 0 | Plant response rating, Ryegrass, Italian [5, 20]: 5 | Plant response rating, Ryegrass, Italian [5, 21]: 5 | Plant response rating, Ryegrass, Italian [5, 22]: 0 | Plant response rating, Ryegrass, Italian [5, 23]: 0 | Plant response rating, Ryegrass, Italian [5, 12]: 0 | Plant response rating, Ryegrass, Italian [5, 24]: 20 | Plant response rating, Russian Thistle [6, 21]: 65 | Plant response rating, Russian Thistle [6, 12]: 90 | Plant response rating, Russian Thistle [6, 24]: 100 | Plant response rating, Surinam Grass [7, 19]: 35 | Plant response rating, Surinam Grass [7, 20]: 50 | Plant response rating, Surinam Grass [7, 21]: 60 | Plant response rating, Surinam Grass [7, 22]: 30 | Plant response rating, Surinam Grass [7, 23]: 5 | Plant response rating, Surinam Grass [7, 12]: 90 | Plant response rating, Surinam Grass [7, 24]: 100 | Plant response rating, Barnyardgrass [8, 25]: 60 | Plant response rating, Barnyardgrass [8, 20]: 60 | Plant response rating, Barnyardgrass [8, 21]: 75 | Plant response rating, Barnyardgrass [8, 22]: 40 | Plant response rating, Barnyardgrass [8, 23]: 0 | Plant response rating, Barnyardgrass [8, 12]: 0 | Plant response rating, Barnyardgrass [8, 26]: 0 | Plant response rating, Barnyardgrass [8, 24]: 10 | Plant response rating, Black Mustard [9, 25]: 40 | Plant response rating, Black Mustard [9, 20]: 65 | Plant response rating, Black Mustard [9, 21]: 98 | Plant response rating, Black Mustard [9, 22]: 10 | Plant response rating, Black Mustard [9, 23]: 20 | Plant response rating, Black Mustard [9, 12]: 40 | Plant response rating, Black Mustard [9, 26]: 60 | Plant response rating, Black Mustard [9, 24]: 100 | Plant response rating, Prickly Sida [10, 19]: 40 | Plant response rating, Prickly Sida [10, 20]: 70 | Plant response rating, Prickly Sida [10, 21]: 70 | Plant response rating, Prickly Sida [10, 22]: 40 | Plant response rating, Prickly Sida [10, 23]: 0 | Plant response rating, Prickly Sida [10, 12]: 0 | Plant response rating, Prickly Sida [10, 26]: 5 | Plant response rating, Prickly Sida [10, 24]: 65

Cc1cc(-n2c(-c3cccc(F)c3)ncc(C(=O)C3=C(O)CCCC3=O)c2=O)ccc1F [Compound 191]
Plant response rating, Deadnettle [11, 27]: 90 | Plant response rating, Deadnettle [11, 16]: 100 | Plant response rating, Deadnettle [11, 28]: 100 | Plant response rating, Deadnettle [11, 29]: 100 | Plant response rating, Galium [1, 30]: 20 | Plant response rating, Galium [1, 20]: 40 | Plant response rating, Galium [1, 21]: 60 | Plant response rating, Galium [1, 31]: 60 | Plant response rating, Barley [4, 30]: 5 | Plant response rating, Barley [4, 20]: 50 | Plant response rating, Barley [4, 21]: 50 | Plant response rating, Barley [4, 31]: 70

CCCCn1c(-c2cc(F)cc(F)c2)ncc(C(=O)C2=C(O)C3CCC(C3)C2=O)c1=O (stereo not shown) [Compound 245]
Plant response rating, Galium [1, 12]: 20 | Plant response rating, Galium [1, 13]: 60 | Plant response rating, Galium [1, 14]: 95 | Galium plant response rating ([1]; Preemergence, 250 g ai/ha, 0 to 100 scale): 95 | Plant response rating, Nightshade [2, 15]: 98 | Plant response rating, Nightshade [2, 16]: 100 | Plant response rating, Nightshade [2, 17]: 100 | Nightshade plant response rating ([2]; 250 g ai/ha, 0 to 100 scale): 100 | Plant response rating, Sunflower [3, 15]: 45 | Plant response rating, Sunflower [3, 16]: 70 | Plant response rating, Sunflower [3, 17]: 80 | Sunflower plant response rating ([3]; 250 g ai/ha, 0 to 100 scale): 95 | Plant response rating, Barley [4, 30]: 45 | Plant response rating, Barley [4, 20]: 85 | Plant response rating, Barley ([4]; Postemergence, 125 g ai/ha, scale 0 (no effect) to 100 (complete control), 13 to 15 days): 85 | Plant response rating, Barley [4, 31]: 95 | Plant response rating, Ryegrass, Italian [5, 19]: 5 | Plant response rating, Ryegrass, Italian [5, 20]: 5 | Plant response rating, Ryegrass, Italian [5, 21]: 20 | Plant response rating, Ryegrass, Italian [5, 18]: 50 | Plant response rating, Russian Thistle [6, 19]: 25 | Plant response rating, Russian Thistle [6, 20]: 60 | Plant response rating, Russian Thistle [6, 21]: 60 | Plant response rating, Russian Thistle [6, 18]: 70 | Plant response rating, Surinam Grass [7, 19]: 75 | Plant response rating, Surinam Grass [7, 20]: 75 | Plant response rating, Surinam Grass [7, 21]: 75 | Plant response rating, Surinam Grass [7, 18]: 75 | Plant response rating, Barnyardgrass [8, 19]: 80 | Plant response rating, Barnyardgrass [8, 20]: 85 | Plant response rating, Barnyardgrass [8, 21]: 85 | Plant response rating, Barnyardgrass [8, 18]: 90 | Plant response rating, Black Mustard [9, 19]: 75 | Plant response rating, Black Mustard [9, 20]: 95 | Plant response rating, Black Mustard [9, 21]: 98 | Plant response rating, Black Mustard [9, 18]: 98 | Plant response rating, Prickly Sida [10, 19]: 30 | Plant response rating, Prickly Sida [10, 20]: 50 | Plant response rating, Prickly Sida [10, 21]: 50 | Plant response rating, Prickly Sida [10, 18]: 70

O=C1CCCC(O)=C1C(=O)c1cnc(-c2cccc(F)c2)n(C2CCCCC2)c1=O [Compound 187]
Plant response rating, Deadnettle [11, 27]: 80 | Plant response rating, Deadnettle [11, 29]: 100 | Plant response rating, Galium [1, 30]: 20 | Plant response rating, Galium [1, 21]: 55 | Plant response rating, Galium [1, 31]: 85 | Barley plant response rating (0 to 100 scale) [4, 32]: 5 | Plant response rating, Barley [4, 30]: 0 | Plant response rating, Barley [4, 21]: 40 | Plant response rating, Barley [4, 31]: 40

O=C1CCCC(O)=C1C(=O)c1cnc(-c2cccs2)n(C2CCCCC2)c1=O [Compound 189]
Plant response rating, Deadnettle [11, 27]: 85 | Plant response rating, Deadnettle [11, 28]: 100 | Plant response rating, Deadnettle [11, 29]: 100 | Plant response rating, Galium [1, 30]: 20 | Plant response rating, Galium [1, 21]: 85 | Plant response rating, Galium [1, 31]: 85 | Barley plant response rating (0 to 100 scale) [4, 32]: 5 | Plant response rating, Barley [4, 30]: 0 | Plant response rating, Barley [4, 21]: 15 | Plant response rating, Barley [4, 31]: 40

CCCn1c(-c2cccc(Cl)c2)ncc(C(=O)C2=C(O)CCCC2=O)c1=O [Compound 190]
Plant response rating, Deadnettle [11, 27]: 65 | Plant response rating, Deadnettle [11, 28]: 100 | Plant response rating, Deadnettle [11, 29]: 100 | Plant response rating, Galium [1, 30]: 50 | Plant response rating, Galium [1, 21]: 60 | Plant response rating, Galium [1, 31]: 85 | Barley plant response rating (0 to 100 scale) [4, 32]: 5 | Plant response rating, Barley [4, 30]: 0 | Plant response rating, Barley [4, 21]: 40 | Plant response rating, Barley [4, 31]: 70
